The source of these data is PMC3555816, “A Lysine at the C-Terminus of an Odorant-Binding Protein is Involved in Binding Aldehyde Pheromone Components in Two Helicoverpa Species” (PLoS ONE, 2013).

Molecules are shown by their SMILES. pIC50, pKd: −log10 of the molar value. Read-outs that look alike come from different tables or passages of the source.

For assay [1], the target named is T1, HarmOBP7-wt (Helicoverpa armigera, UniProt F5ANI5). The assay can be described thus: Competitive binding assay, displacement of 1-NPN from HarmOBP7-wt. The conditions noted are these: for Affinity to HarmOBP7 (in words): competitive binding with 1-NPN. On the procedure:
(§1) Emission fluorescence spectra were recorded on a Hitachi F-4500 at 25°C in a right angle configuration, with a 1 cm light path quartz cuvette and 5 nm slits for both excitation and emission. The protein was dissolved in 50 mM Tris-HCl buffer, pH 7.4, while ligands were added as 1 mM methanol solutions.
The probe was excited at 337 nm and emission spectra were recorded between 380 and 450 nm. […] Dissociation constant for 1-NPN and the stoichiometry of binding was obtained by processing the data with Prism software.

Assay [2] has as its target T2, HarmOBP7-m1 (Helicoverpa armigera, UniProt F5ANI5).
T2 sequence (F5ANI5 22-142): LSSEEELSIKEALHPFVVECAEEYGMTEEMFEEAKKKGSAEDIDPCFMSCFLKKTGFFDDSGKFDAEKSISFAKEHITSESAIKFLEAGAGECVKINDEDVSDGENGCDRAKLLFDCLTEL
The assay can be described thus: Fluorescence binding of 1-NPN to HarmOBP7-m1 (lacks the last 6 residues). How it is done:
(§2) Emission fluorescence spectra were recorded on a Hitachi F-4500 at 25°C in a right angle configuration, with a 1 cm light path quartz cuvette and 5 nm slits for both excitation and emission. […]
(§3) The probe was excited at 337 nm and emission spectra were recorded between 380 and 450 nm. […] Dissociation constant for 1-NPN and the stoichiometry of binding was obtained by processing the data with Prism software. Dissociation constants of the competitors were calculated from the corresponding [IC]50 values (concentrations of ligands halving the initial fluorescence value of 1-NPN), using the equation: KD = [IC50]/1+[1-NPN]/K1-NPN, [1-NPN] being the free concentration of 1-NPN and K1-NPN being the dissociation constant of the complex protein/1-NPN.

In assay [3] the target is T1, HarmOBP7-wt. The experiment in a line: Fluorescence binding of 1-NPN to HarmOBP7-wt. How it is done: as §2, §3
The target of assay [4] is HarmOBP7-m2 (Helicoverpa armigera, UniProt F5ANI5). The assay can be described thus: Fluorescence binding of 1-NPN to HarmOBP7-m2 (K123M). The conditions noted are these: read-out: Dissociation constant of 1-NPN; HarmOBP7-m2, 2 µM protein in Tris, pH 7.4, three replicates, SD 0.22. How it is done:
as §1, §3

[5] abbreviates: HarmOBP7-wt, 2 µM protein and 2 µM 1-NPN, pH 7.4, values larger than 16 extrapolated from the competitive binding curves, read-out: [IC]50.
[6] abbreviates: HarmOBP7-wt, 2 µM protein and 2 µM 1-NPN, pH 7.4, concentration of ligand halving initial 1-NPN fluorescence, read-out: [IC]50.
The mark [7] stands for this setting: HarmOBP7-wt, calculated from [IC]50: KD = [IC50]/1+[1-NPN]/K1-NPN, read-out: KD (calculated dissociation constant).

T1 sequence (F5ANI5 entry or part of it): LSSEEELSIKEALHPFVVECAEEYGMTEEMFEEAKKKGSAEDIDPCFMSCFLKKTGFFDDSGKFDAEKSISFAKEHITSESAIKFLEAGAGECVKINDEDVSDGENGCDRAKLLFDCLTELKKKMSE
Sequence of HarmOBP7-m2 (F5ANI5 entry or part of it): as above

Turning to `COc1ccc(-c2ccccc2)cc1` [4-Phenylanisole], the pIC50 in assay [1] (setting [5]) was less than 4.80.

As to `CC(C)c1ccc(C=O)cc1` [p-Isopropylbenzaldehyde], the pIC50 in assay [1] (setting [6]) was 4.98. In assay [1] (setting [7]), the pKd is 5.10.

As for `CCCCCCCCCCCCO` [1-Dodecanol], the pIC50 in assay [1] (setting [5]) was less than 4.60.

With `CCCCCCCCCCC(C)=O` [2-Dodecanone], the pIC50 in assay [1] (setting [5]) is less than 4.80.

For the compound `CCCCCCCCCCCCCCCO` [1-Pentadecanol], the pIC50 in assay [1] (setting [5]) is less than 4.60.

As for `O=Cc1ccccc1` [Benzaldehyde], in assay [1], the pIC50 was 4.97 and the pKd is 5.09.

In assay [1], `CCCCCCCCCCCCCCO` [1-Tetradecanol] gave a pIC50 of 5.17 and a pKd of 5.29.

On to `CCCCCCCCCCO` [1-Decanol], for which, in assay [1], the pIC50 was less than 4.80.

Consider `CCCCCCCCCC(=O)OCC` [Ethyl decanoate], for which the pIC50 in assay [1] (setting [5]) was less than 4.80.

In the case of `CCCCOC(=O)/C=C/c1ccccc1` [Butyl cinnamate], in assay [1] (setting [6]), the pIC50 was 5.02. Further, the pKd in assay [1] (setting [7]) is 5.14.

As to `CCCCCCCCCCCCCCCCO` [1-Hexadecanol], in assay [1] (setting [5]), the pIC50 is less than 4.80.

With `CCCCCC/C=C\CCCCCCCC=O` [Z-9-hexadecenal], the “Affinity to HarmOBP7 (in words)” value in assay [1] (HarmOBP7-wt) is on record as “good affinity”.

As to `CCCCCCCCCCCCOC(C)=O` [Dodecyl acetate], the pIC50 in assay [1] (setting [6]) is 5.28. For the same compound, in assay [1] (setting [7]), the pKd was 5.41.

For `Cc1ccc2ccccc2c1` [2-Methylnaphthalene], the pIC50 in assay [1] was less than 4.80.

For `CCCCCCCCCCCCCCCCCCO` [1-Octadecanol], the pIC50 in assay [1] (setting [5]) is less than 4.60.

Consider `CCCCCCCCCCCC=O` [Dodecanal], for which the pIC50 in assay [1] (setting [6]) is 4.99. Also, the pKd in assay [1] (setting [7]) is 5.11.

In the case of `CCCCOC(=O)c1ccc(C(C)(C)C)cc1` [Butyl p-tert-butyl benzoate], the pIC50 in assay [1] (setting [6]) was 5.16. For the same compound, in assay [1] (setting [7]), the pKd is 5.28.

On to `COc1ccccc1C=CC=O` [2-Methoxycinnamaldehyde], for which, in assay [1] (setting [6]), the pIC50 was 4.83. For the same compound, the pKd in assay [1] (setting [7]) was 4.95.

Consider `CC(C)CCCC(C)CCOC(=O)c1ccccc1` (stereo not shown) [3,7-Dimethyloctylbenzoate], for which the pIC50 in assay [1] (setting [6]) was 5.46. Besides, in assay [1] (setting [7]), the pKd was 5.57.

With `CCCCCCCCCCCC(=O)OCC` [Ethyl laurate], in assay [1] (setting [6]), the pIC50 is 5.37. In addition, the pKd in assay [1] (setting [7]) was 5.48.

Regarding `COc1cc(/C=C/C=O)ccc1O` [Coniferyl aldehyde], in assay [1], the pIC50 is 4.90 and the pKd is 5.02.

`CCCCCCCCCCCC(C)=O` [2-Tridecanone]: the pIC50 in assay [1] (setting [6]) is 5.02. The pKd in assay [1] (setting [7]) was 5.14.

Take `CCCCCCCCCCCCCCCC(=O)OCC` [Ethyl palmitate]: the pIC50 in assay [1] (setting [6]) is 4.90. Moreover, the pKd in assay [1] (setting [7]) was 4.90.

Regarding `CCCC/C=C\CCCCCCCCCC=O` [Z-11-hexadecenal], the “Affinity to HarmOBP7 (in words)” value in assay [1] (HarmOBP7-wt) was “good affinity”.

For the compound `CCCCCCCCCCCCCC(=O)OCC` [Ethyl myristate], the pIC50 in assay [1] (setting [6]) is 5.33. Besides, in assay [1] (setting [7]), the pKd is 5.46.

For the compound `CC(C)(C)c1ccc(C(=O)c2ccccc2)cc1` [p-tert-Butylbenzophenone], the pIC50 in assay [1] (setting [6]) was 5.35. Besides, in assay [1] (setting [7]), the pKd was 5.47.

On to `CCCCCCCCCCC=O` [Undecanal], for which the pIC50 in assay [1] (setting [6]) was 4.97. In addition, the pKd in assay [1] (setting [7]) is 5.09.

For `CCCCC/C(C=O)=C/c1ccccc1` [α-Amylcinnamaldehyde], the pIC50 in assay [1] (setting [6]) was 5.26. In assay [1] (setting [7]), the pKd was 5.38.

`COc1cc(CC(=O)O)ccc1O` [Homovanillic acid]: in assay [1], the pIC50 is less than 4.80.

As for `COC(=O)C=Cc1ccccc1` [Methyl cinnamate], in assay [1] (setting [5]), the pIC50 was less than 4.80.

`CCCCCCCCCCCCCC=O` [Tetradecanal]: in assay [1] (setting [6]), the pIC50 is 5.49. For the same compound, in assay [1] (setting [7]), the pKd was 5.62.

`CCCCCCCCCCCCCO` [1-Tridecanol]: the pIC50 in assay [1] (setting [6]) was 5.34. Moreover, the pKd in assay [1] (setting [7]) was 5.46.

Consider `CCCCCCCCCCCCCCCCC=O` [Heptadecanal], for which the pIC50 in assay [1] (setting [6]) was 5.04. Moreover, in assay [1] (setting [7]), the pKd is 5.16.

In assay [1], `O=C(O)/C=C/c1ccccc1` [Cinnamic acid] gave a pIC50 of less than 4.60.

On to `c1ccc(Nc2cccc3ccccc23)cc1` [1-NPN, N-phenyl-1-naphthylamine], for which the pKd in assay [2] (HarmOBP7-m1, 2 µM protein in Tris, pH 7.4, three replicates, SD 1.1, read-out: Dissociation constant of 1-NPN) is 5.17; in assay [3] (2 µM protein in Tris, pH 7.4, three replicates, SD 0.63, read-out: Dissociation constant of 1-NPN), 5.26; in assay [4], 5.49. Moreover, the “Effect of pH on affinity of 1-NPN (in words)” value is “marked increase in affinity” in assay [2] (HarmOBP7-m1, pH range 3.5 to 9.5, basic conditions, no significant loss of binding down to pH 3.5) and “marked increase in affinity” in assay [3] (pH range 3.5 to 9.5, basic conditions, no significant loss of binding down to pH 3.5).

On to `CCCCCCCCCCCCC=O` [Tridecanal], for which the pIC50 in assay [1] (setting [6]) was 5.31. Moreover, the pKd in assay [1] (setting [7]) was 5.43.
